Measurements as given in ChEMBL document CHEMBL4425147, “Preparation, biological evaluation and molecular docking study of imidazolyl dihydropyrimidines as potential Mycobacterium tuberculosis dihydrofolate reductase inhibitors” (Bioorg Med Chem Lett, 2016).
Converted amounts (≈) assume the structure as drawn.

What was measured:
Vero = experiment: Cytotoxicity against African green monkey Vero cells assessed as reduction in cell viability after 72 hrs by MTT assay; type: cell-based; conditions: Chlorocebus sabaeus
[1] = system: Mycobacterium tuberculosis; experiment: Antitubercular activity against Mycobacterium tuberculosis H37Rv ATCC 27294 by MABA; type: functional
[2] = Selectivity ratio of IC50 for African green monkey Vero cells to MIC for Mycobacterium tuberculosis H37Rv ATCC 27294; type: toxicity; conditions: read-out: Selectivity Index
[3] = system: Mycobacterium tuberculosis; experiment: Antitubercular activity against Mycobacterium tuberculosis H37Rv ATCC 27294 at 6.25 ug/ml by MABA; type: functional
[4] = system: Mycobacterium tuberculosis; experiment: Bacteriostatic activity against Mycobacterium tuberculosis Erdman infected in mouse bone marrow macrophage monolayers assessed as reduction in colony forming units at 4 fold MIC concentration after 7 days; type: functional; conditions: Erdman = ATCC 35801, 168 h
[5] = system: Mycobacterium tuberculosis; experiment: Bactericidal activity against Mycobacterium tuberculosis Erdman infected in mouse bone marrow macrophage monolayers assessed as reduction in colony forming units at 4 fold MIC concentration after 7 days; type: functional; conditions: Erdman = ATCC 35801, 168 h
[6] = Ratio of EC90 for Mycobacterium tuberculosis Erdman infected in mouse bone marrow macrophage monolayers to MIC for Mycobacterium tuberculosis H37Rv ATCC 27294; type: functional

Row | Structure (SMILES) | IC50 (Vero) | MIC90 [1] | selectivity ratio [2] | inhibition at 6.25 µg/mL [3] | EC90 [4] | EC99 [5] | Ratio [6]
1 | CCCCc1nc(Cl)c(C2NC(=O)NC(C)=C2C(=O)Nc2ccccc2Cl)[nH]1 (stereo not given) | 7.6 mg/L (≈ 18 µM) | 1.56 mg/L (≈ 3.69 µM) | 4.87 | 92% | – | – | –
2 | CCCCc1nc(Cl)c(C2NC(=O)NC(C)=C2C(=O)Nc2cccc(Cl)c2)[nH]1 (stereo not given) | – | – | – | 89% | – | – | –
3 | CCCCc1nc(Cl)c(C2NC(=O)NC(C)=C2C(=O)Nc2ccccc2[N+](=O)[O-])[nH]1 (stereo not given) | – | – | – | 82% | – | – | –
4 | CCCCc1nc(Cl)c(C2NC(=O)NC(C)=C2C(=O)Nc2cccc(OC)c2)[nH]1 (stereo not given) | – | – | – | 72% | – | – | –
5 | NNC(=O)c1ccncc1 [ISONIAZID] | – | 0.03 to 0.06 mg/L (≈ 0.219 to 0.438 µM) | > 40000 | – | 0.03 mg/L (≈ 0.219 µM) | 0.42 µg/mL | 1
6 | CCCCc1nc(Cl)c(C2NC(=O)NC(C)=C2C(=O)Nc2ccccc2OC)[nH]1 (stereo not given) | – | – | – | 79% | – | – | –
7 | CCCCc1nc(Cl)c(C2NC(=O)NC(C)=C2C(=O)Nc2ccc([N+](=O)[O-])cc2)[nH]1 (stereo not given) | > 10 mg/L | 0.78 mg/L (≈ 1.8 µM) | > 12.8 | 98% | 0.074 mg/L (≈ 0.171 µM) | 0.59 µg/mL | 0.09
8 | CCCCc1nc(Cl)c(C2NC(=O)NC(C)=C2C(=O)Nc2cccc([N+](=O)[O-])c2)[nH]1 (stereo not given) | – | – | – | 76% | – | – | –
9 | CCCCc1nc(Cl)c(C2NC(=O)NC(C)=C2C(=O)Nc2ccc(Cl)cc2)[nH]1 (stereo not given) | 9.4 mg/L (≈ 22.3 µM) | 0.39 mg/L (≈ 0.923 µM) | 24.1 | 97% | 0.102 mg/L (≈ 0.242 µM) | 0.69 µg/mL | 0.26
10 | CCCCc1nc(Cl)c(C2NC(=O)NC(C)=C2C(=O)Nc2ccc(OC)cc2)[nH]1 (stereo not given) | – | – | – | 89% | – | – | –
11 | CCCCc1nc(Cl)c(C2NC(=O)NC(C)=C2C(=O)Nc2ccccc2)[nH]1 (stereo not given) | – | – | – | 59% | – | – | –
12 | CCCCc1nc(Cl)c(C2NC(=O)NC(C)=C2C(=O)Nc2ccccc2C)[nH]1 (stereo not given) | – | – | – | 63% | – | – | –
13 | CCCCc1nc(Cl)c(C2NC(=O)NC(C)=C2C(=O)Nc2ccc(F)cc2)[nH]1 (stereo not given) | > 10 mg/L | 0.39 mg/L (≈ 0.961 µM) | > 25.6 | 99% | 0.039 mg/L (≈ 0.0961 µM) | 0.54 µg/mL | 0.1
14 | CCCCc1nc(Cl)c(C2NC(=O)NC(C)=C2C(=O)Nc2cccc(F)c2)[nH]1 (stereo not given) | – | – | – | 85% | – | – | –
15 | CCCCc1nc(Cl)c(C2NC(=O)NC(C)=C2C(=O)Nc2ccc(C)cc2)[nH]1 (stereo not given) | – | – | – | 72% | – | – | –
16 | CCCCc1nc(Cl)c(C2NC(=O)NC(C)=C2C(=O)Nc2ccccc2F)[nH]1 (stereo not given) | > 10 mg/L | 3.12 mg/L (≈ 7.69 µM) | > 3.12 | 90% | – | – | –
17 | CCCCc1nc(Cl)c(C2NC(=O)NC(C)=C2C(=O)Nc2cccc(C)c2)[nH]1 (stereo not given) | – | – | – | 65% | – | – | –
